Where no end group is shown, it is not given here.
Columns and labels:
[1] = system: African swine fever virus (ASFV) BA71V; format: cell-based

Substance | proliferation of Vero cells (proliferative index) (Vero cells) | I.C.E. at 50 μM (inhibition of the cytopathic effect) [1] | I.C.E. at 100 μM (inhibition of the cytopathic effect) [1]
RRRRRRRRSLVSSDESSSGSSHSSGEHS [RS28] | not modified | – | –
SS20: 20-residue negative control peptide of irrelevant sequence (SLVSSDESSSGSSHSSGEHS) [reference compound] | – | no | no

— patent publication US8592552B2 (priority 2007, dated 2013)
